Assay results published in patent US4162325A, “N-substituted lactams” (UCB, Societe Anonyme, priority 1976, dated 1979).
Where “and” joins values, the source holds several entries; their conditions need not be identical. Identical values can stand only once. Like-named read-outs stand apart in the source and are kept apart here.

Tests used:
[1] = test system: rats; experiment: active avoidance test, memory retention (paw pressure withdrawal) in rats; assay type: in vivo, rat; settings: for minimal effective dose: Rattus norvegicus, sc, 24 h, read-out: Active dose (minimum dose which reduces the stimulus to below 11 graduations); for activity compared with piracetam in the active avoidance test: rat, subcutaneous
Excerpt: (A) The action on mnemic processes is first shown by the ability of the compounds to improve a type of memory retention in rats. The principle of the active avoidance test (see M. GREINDL and S. PREAT, Arch. Int. Pharmacodyn. Therap. 223,(1976),(1),168-171) developed in our laboratories and used for this purpose may be described as follows: the reaction of withdrawal of a rat's paw when subjected to an increasing and measured pressure is observed. The pressure at which the withdrawal reaction takes place is called the reaction threshold. This threshold is expressed by the number of graduations of the scale of the apparatus used (Analgesy meter UGO BASILE - Milano) and thus corresponds to the minimum pressure which brings about withdrawal when applied to the animal's paw. It is read directly from the scale of the apparatus used.
Inversely, animals treated with a substance having a positive effect on the mnemic processes (for example, piracetam) show a significant degree of retention: the stimulus at which the rats react by a reflex of avoidance is statistically lower than that of the control animals. A minimum of 20 rats are used per test (10 treated rats and 10 control rats) and the active dose is defined as the minimum dose which reduces the stimulus to below 11 graduations.
Subcutaneous administration of compounds of general formula (I), namely compounds A, G, H, I, J, K, L, N, O, P, Q, R, V, W, give, under these conditions, the effects indicated in Table I below.

[2] = test system: rat; experiment: reduction of the spinal fixation time in rats; assay type: in vivo; settings: intraperitoneal, spinal section after 35 minutes
Excerpt: (B) The action on mnemic processes is also shown by the reduction of the spinal fixation time, a test which has been described in literature (see C. GIURGEA & F. MOURAVIEFF-LESUISSE, Arch. Int. Pharmacodyn. 191/2,(1971),279) as an elementary memory model and which provides pharmacological reactivity in good correlation with clinical physiopathology. In the rat, after unilateral section of the cerebellum, there is a postural asymmetry of the hind paws. This asymmetry may persist, even after spinal section, if the animal has passed a sufficient period of time in this position. This time, which is called the spinal fixation time, is 45 minutes under the experimental conditions applied here.
On the other hand, if spinal section is performed before the expiry of this period of time, for example 35 minutes after the onset of the asymmetry, the latter disappears.
No animal treated with placebos retains the asymmetry under these conditions.
Inversely, any product which allows the rats to retain the asymmetry (thus effecting spinal fixation) when the spinal section is performed after 35 minutes, is considered to be active.
Intraperitoneal administration of compound A gives rise to the effects described in Table II. By "number of animals" is to be understood the number of animals which responded positively to the test, in relation to the number of animals tested at the indicated dose: […]

[3] = test system: mice; experiment: protection against aggressions of the hypoxic type (lethality induced by oxydipentonium chloride) in mice; assay type: in vivo; settings: 1 h, mouse, intraperitoneal, one hour before curarizer, read-out: Proportion of survivors, treated animals; for responders at 100 µM, 100 µmol/kg: 0.1 mM/kg (F 24, G 25.5, H 24, I 30, J 21, K 23, L 23 mg/kg), control 1/10, F 0/10
Protocol: Protection against aggressions of the hypoxic type is shown by a reduction of the lethality induced by a curarizer, the duration of action of which is short, namely oxydipentonium chloride (Brevatonal). At the doses used, this curarizer brings about a respiratory depression which, in turn, brings about a hypoxi-hypercapnic syndrome. A compound capable of protecting the brain during this brief period of hypoxia ensures survival. The compounds are administered to groups of 10 mice one hour before the injection of the curarizer; in a parallel test, a control group of 10 mice are given physiological salt solution before the curarizer. This test has also been developed in our laboratories (see, for the principle of this test, S. LEVIS et al.; Arch. Int. Pharmacodyn. Therap, 93,(1953),1,46-54).
Intraperitoneal administration of compounds of general formula (I), namely, products A, B, F, G, H, I, J, K, L, gives the results shown in Table III: […]

[4] = toxicity, LD50 in rat; settings: in vivo, intravenous
Excerpt: The tested compounds have a remarkably low toxicity. Table V gives the toxicities, after intravenous administration, of some of the compounds of the present invention: […]

[5] = test system: papillary muscle isolated from the rabbit heart; experiment: cardiac activity on isolated papillary muscle of rabbit heart; settings: for activation at 100 µg/mL / activation at 10 µg/mL: Oryctolagus cuniculus, read-out: percentage increase of the tension measured
Excerpt: This has been shown by the method employing the papillary muscle isolated from the rabbit heart, according to the method of H. G. Schoepke and F. E. Shiddeman, J. Pharmacol. Exptl. Therap. 133,(1961), 171.
The reactivity of various compounds of general formula (I) after each experiment is checked against theophylline. Table IV gives some of the results observed, expressed as a percentage increase of the tension measured.

[6] = test system: rat; settings: 30 mg/kg (0.2 mM/kg), Giurgea et al., loc.cit.; cited from earlier work

NC(=O)CNC(=O)CN1CCCC1=O [A, 2-(2-Oxo-1-pyrrolidineacetamido)-acetamide]
minimal effective dose [1]: 0.4 mg/kg and 2 µmol/kg
activity compared with piracetam in the active avoidance test [1]: superior to that of piracetam
Number of animals which responded positively / number tested ([2]; 6.4 mg/kg (0.032 mM/kg)): 3/7
Number of animals which responded positively / number tested ([2]; 20.0 mg/kg (0.1 mM/kg)): 4/5
responders at 320 µM, 320 µmol/kg ([3]; 0.32 mM/kg (A 64, I 95, J 68, Piracetam 45 mg/kg), control 1/10, Piracetam 0/10): 70%
LD50 [4]: > 5000 µmol/kg and > 1000 mg/kg

CN(CC(=O)Nc1ccccc1)C(=O)CN1CCCC1=O [Compound E, 2-(N-Methyl-2-oxo-1-pyrrolidineacetamido)-N-phenylacetamide]
activation at 100 µg/mL [5]: 22%

CC(C(=O)NCC(N)=O)N1C(=O)CCC1(C)C (stereo not drawn) [Compound H, 2-(alpha,5,5-trimethyl-2-oxo-1-pyrrolidineacetamido)-acetamide]
minimal effective dose [1]: 0.0024 mg/kg and 0.01 µmol/kg
activity compared with piracetam in the active avoidance test [1]: superior to that of piracetam
responders at 10 µM, 10 µmol/kg ([3]; 0.01 mM/kg (B 2.6, G 2.6, H 2.4 mg/kg), control B 1/10, G 1/10, H 2/10): 60%
responders at 100 µM, 100 µmol/kg [3]: 100%
activation at 10 µg/mL [5]: 10%
action against anoxia ([5]; same test (isolated papillary muscle, rabbit heart)): protective action against anoxia
LD50 [4]: > 3100 µmol/kg and > 747 mg/kg

CCC(C(=O)NCC(N)=O)N1CCCC1=O (stereo not drawn) [Compound K, 2-(alpha-ethyl-2-oxo-1-pyrrolidineacetamido)-acetamide]
minimal effective dose [1]: 4.54 mg/kg and 20 µmol/kg
activity compared with piracetam in the active avoidance test [1]: superior to that of piracetam
responders at 100 µM, 100 µmol/kg [3]: 70%
activation at 100 µg/mL [5]: 44%
LD50 [4]: > 2500 µmol/kg and > 568 mg/kg

CN(C)C(=O)CNC(=O)CN1CCCC1=O [Compound M, N,N-ddimethyl-2-(2-oxo-1-pyrrolidineacetamido)-acetamide]
activation at 10 µg/mL [5]: 10%

CCCCC1CCN(CC(=O)NCC(N)=O)C1=O (stereo not drawn) [Compound X, 2-(3-n-butyl-2-oxo-1-pyrrolidineacetamido)-acetamide]
activation at 100 µg/mL [5]: 25%

NC(=O)CN1CCCC1=O [Piracetam, 2-oxo-1-pyrrolidineacetamide, reference compound]
minimal effective dose [1]: 3.5 mg/kg and 25 µmol/kg
responders at 320 µM, 45 mg/kg ([3]; ip, 0.32 mM/kg (A 64, I 95, J 68, Piracetam 45 mg/kg), control 1/10, Piracetam 0/10): 10%
responders at 1000 µM, 142 mg/kg ([3]; ip, 1.0 mM/kg (Piracetam 142 mg/kg), control 2/10): 40%
responders at 3200 µM, 454 mg/kg ([3]; ip, 3.2 mM/kg (Piracetam 454 mg/kg), control 1/10): 80%
Number of animals which responded positively / number tested [6]: 4/9

Cn1c(=O)c2[nH]cnc2n(C)c1=O [Theophylline, reference compound]
activation at 100 µg/mL ([5]; 100 μg/ml): 38%
